Data from patent publication US20230085307A1, “PYRIDAZINONE COMPOUND AND HERBICIDE” (NISSAN CHEMICAL CORPORATION, priority 2019, published 2023).

Tests used:
barnyard grass [1] = assay: Test Example 3: herbicidal effect by foliage application, Wagner pot (Table 18, symbol H); format: in vivo, barnyard grass (Echinochloa crus-galli); conditions: amount of applied herbicide 320 g/ha
How it was run: (§1)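 Plants were sown in alluvial soil held under 0.1–0.5 cm standing water and grown 14 days in a greenhouse at 25–30 °C. An emulsifiable formulation, water-diluted to the set dose, was then sprayed onto the foliage, and effects were scored three weeks later using previously defined criteria.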

blackgrass [2] = assay: Test Example 5: herbicidal effect by foliage application, plastic box (Table 20, symbol J); format: in vivo, blackgrass (Alopecurus myosuroides); conditions: foliage application, 320 g/ha, evaluated three weeks after application
How it was run: (§2)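 Post-emergence foliar test in sterilized diluvial soil. Compound applied as water-diluted emulsion at a predetermined rate to 14-day-old plants; evaluation at three weeks.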

barnyard grass [3] = assay: Test Example 4: herbicidal effect by soil treatment (Table 19, symbol H); format: in vivo, barnyard grass (Echinochloa crus-galli); conditions: amount of applied herbicide 320 g/ha
How it was run: (§3)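 Emulsion of test compound, water-diluted to predetermined amount, sprayed on soil after sowing (seed depth ~1.5 cm, sterilized diluvial soil). Greenhouse, 25–30° C. Effect graded at three weeks post-spray.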

redroot pigweed [4] = assay: Test Example 5: herbicidal effect by foliage application, plastic box (Table 20, symbol N); format: in vivo, redroot pigweed (Amaranthus retroflexus); conditions: foliage application, 320 g/ha, evaluated three weeks after application
How it was run: as §2

wild oat [5] = assay: Test Example 4: herbicidal effect by soil treatment (Table 19, symbol I); format: in vivo, wild oat (Avena fatua); conditions: amount of applied herbicide 320 g/ha
How it was run: as §3

lambsquarters [6] = assay: Test Example 4: herbicidal effect by soil treatment (Table 19, symbol O); format: in vivo, lambsquarters (Chenopodium album); conditions: amount of applied herbicide 320 g/ha
How it was run: as §3

blackgrass [7] = assay: Test Example 4: herbicidal effect by soil treatment (Table 19, symbol J); format: in vivo, blackgrass (Alopecurus myosuroides); conditions: amount of applied herbicide 320 g/ha
How it was run: as §3

southern crabgrass [8] = assay: Test Example 5: herbicidal effect by foliage application, plastic box (Table 20, symbol F); format: in vivo, southern crabgrass (Digitaria ciliaris); conditions: foliage application, 320 g/ha, evaluated three weeks after application
How it was run: as §2

Italian ryegrass [9] = assay: Test Example 4: herbicidal effect by soil treatment (Table 19, symbol K); format: in vivo, Italian ryegrass (Lolium multiflorum); conditions: amount of applied herbicide 320 g/ha
How it was run: as §3

velvetleaf [10] = assay: Test Example 5: herbicidal effect by foliage application, plastic box (Table 20, symbol M); format: in vivo, velvetleaf (Abutilon theophrasti); conditions: foliage application, 320 g/ha, evaluated three weeks after application
How it was run: as §2

wild oat [11] = assay: Test Example 5: herbicidal effect by foliage application, plastic box (Table 20, symbol I); format: in vivo, wild oat (Avena fatua); conditions: foliage application, 320 g/ha, evaluated three weeks after application
How it was run: as §2

windgrass [12] = assay: Test Example 4: herbicidal effect by soil treatment (Table 19, symbol L); format: in vivo, windgrass (Apera spica-venti); conditions: amount of applied herbicide 320 g/ha
How it was run: as §3

rice flat sedge = assay: Test Example 3: herbicidal effect by foliage application, Wagner pot (Table 18, symbol E); format: in vivo, rice flat sedge (Cyperus iria); conditions: amount of applied herbicide 320 g/ha
How it was run: as §1

southern crabgrass [13] = assay: Test Example 4: herbicidal effect by soil treatment (Table 19, symbol F); format: in vivo, southern crabgrass (Digitaria ciliaris); conditions: amount of applied herbicide 320 g/ha
How it was run: as §3

persian speedwell [14] = assay: Test Example 4: herbicidal effect by soil treatment (Table 19, symbol R); format: in vivo, Persian speedwell (Veronica persica); conditions: amount of applied herbicide 320 g/ha
How it was run: as §3

persian speedwell [15] = assay: Test Example 5: herbicidal effect by foliage application, plastic box (Table 20, symbol R); format: in vivo, Persian speedwell (Veronica persica); conditions: foliage application, 320 g/ha, evaluated three weeks after application
How it was run: as §2

chickweed [16] = assay: Test Example 5: herbicidal effect by foliage application, plastic box (Table 20, symbol P); format: in vivo, common chickweed (Stellaria media); conditions: foliage application, 320 g/ha, evaluated three weeks after application
How it was run: as §2

green foxtail [17] = assay: Test Example 5: herbicidal effect by foliage application, plastic box (Table 20, symbol G); format: in vivo, green foxtail (Setaria viridis); conditions: foliage application, 320 g/ha, evaluated three weeks after application
How it was run: as §2

redroot pigweed [18] = assay: Test Example 4: herbicidal effect by soil treatment (Table 19, symbol N); format: in vivo, redroot pigweed (Amaranthus retroflexus); conditions: amount of applied herbicide 320 g/ha
How it was run: as §3

velvetleaf [19] = assay: Test Example 4: herbicidal effect by soil treatment (Table 19, symbol M); format: in vivo, velvetleaf (Abutilon theophrasti); conditions: amount of applied herbicide 320 g/ha
How it was run: as §3

Chinese sprangletop = assay: Test Example 3: herbicidal effect by foliage application, Wagner pot (Table 18, symbol D); format: in vivo, chinese sprangletop (Leptochloa chinensis); conditions: amount of applied herbicide 320 g/ha
How it was run: as §1

chickweed [20] = assay: Test Example 4: herbicidal effect by soil treatment (Table 19, symbol P); format: in vivo, common chickweed (Stellaria media); conditions: amount of applied herbicide 320 g/ha
How it was run: as §3

lambsquarters [21] = assay: Test Example 5: herbicidal effect by foliage application, plastic box (Table 20, symbol O); format: in vivo, lambsquarters (Chenopodium album); conditions: foliage application, 320 g/ha, evaluated three weeks after application
How it was run: as §2

Italian ryegrass [22] = assay: Test Example 5: herbicidal effect by foliage application, plastic box (Table 20, symbol K); format: in vivo, Italian ryegrass (Lolium multiflorum); conditions: foliage application, 320 g/ha, evaluated three weeks after application
How it was run: as §2

windgrass [23] = assay: Test Example 5: herbicidal effect by foliage application, plastic box (Table 20, symbol L); format: in vivo, windgrass (Apera spica-venti); conditions: foliage application, 320 g/ha, evaluated three weeks after application
How it was run: as §2

green foxtail [24] = assay: Test Example 4: herbicidal effect by soil treatment (Table 19, symbol G); format: in vivo, green foxtail (Setaria viridis); conditions: amount of applied herbicide 320 g/ha
How it was run: as §3

barnyard grass [25] = assay: Test Example 5: herbicidal effect by foliage application, plastic box (Table 20, symbol H); format: in vivo, barnyard grass (Echinochloa crus-galli); conditions: foliage application, 320 g/ha, evaluated three weeks after application
How it was run: as §2

SMILES	herbicidal effect on H: barnyard grass (barnyard grass [1])	herbicidal effect on J: blackgrass (criteria 0-5) (blackgrass [2])	herbicidal effect on H: barnyard grass (barnyard grass [3])	herbicidal effect on N: redroot pigweed (criteria 0-5) (redroot pigweed [4])	herbicidal effect on I: wild oat (wild oat [5])	herbicidal effect on O: lambsquarters (lambsquarters [6])	herbicidal effect on J: blackgrass (blackgrass [7])	herbicidal effect on F: southern crabgrass (criteria 0-5) (southern crabgrass [8])	herbicidal effect on K: Italian ryegrass (Italian ryegrass [9])	herbicidal effect on M: velvetleaf (criteria 0-5) (velvetleaf [10])	herbicidal effect on I: wild oat (criteria 0-5) (wild oat [11])	herbicidal effect on L: windgrass (windgrass [12])	herbicidal effect on E: rice flat sedge (rice flat sedge)	herbicidal effect on F: southern crabgrass (southern crabgrass [13])	herbicidal effect on R: persian speedwell (persian speedwell [14])	herbicidal effect on R: persian speedwell (criteria 0-5) (persian speedwell [15])	herbicidal effect on P: chickweed (criteria 0-5) (chickweed [16])	herbicidal effect on G: green foxtail (criteria 0-5) (green foxtail [17])	herbicidal effect on N: redroot pigweed (redroot pigweed [18])	herbicidal effect on M: velvetleaf (velvetleaf [19])	other results
Cc1nn(C)c(=O)c(-c2c(-c3cccc(C(F)(F)F)c3)sc3ccc(F)cc23)c1O [2-231]	4 (Herbicidal rate of 70% or more and less than 90%)	0 (Herbicidal rate of 5% or less (almost no effect))	0 (Herbicidal rate of 5% or less (almost no effect))	3 (Herbicidal rate of 40% or more and less than 70%)	0 (Herbicidal rate of 5% or less (almost no effect))	1 (Herbicidal rate of 5% or more and less than 20%)	0 (Herbicidal rate of 5% or less (almost no effect))	0 (Herbicidal rate of 5% or less (almost no effect))	0 (Herbicidal rate of 5% or less (almost no effect))	4 (Herbicidal rate of 70% or more and less than 90%)	0 (Herbicidal rate of 5% or less (almost no effect))	0 (Herbicidal rate of 5% or less (almost no effect))	5 (Herbicidal rate of 90% or more (almost completely withered))	0 (Herbicidal rate of 5% or less (almost no effect))	0 (Herbicidal rate of 5% or less (almost no effect))	4 (Herbicidal rate of 70% or more and less than 90%)	5 (Herbicidal rate of 90% or more (almost completely withered))	3 (Herbicidal rate of 40% or more and less than 70%)	0 (Herbicidal rate of 5% or less (almost no effect))	0 (Herbicidal rate of 5% or less (almost no effect))	herbicidal effect on D: Chinese sprangletop (Chinese sprangletop): 3 (Herbicidal rate of 40% or more and less than 70%); herbicidal effect on P: chickweed (chickweed [20]): 3 (Herbicidal rate of 40% or more and less than 70%); herbicidal effect on O: lambsquarters (criteria 0-5) (lambsquarters [21]): 3 (Herbicidal rate of 40% or more and less than 70%); herbicidal effect on K: Italian ryegrass (criteria 0-5) (Italian ryegrass [22]): 0 (Herbicidal rate of 5% or less (almost no effect)); herbicidal effect on L: windgrass (criteria 0-5) (windgrass [23]): 4 (Herbicidal rate of 70% or more and less than 90%); herbicidal effect on G: green foxtail (green foxtail [24]): 0 (Herbicidal rate of 5% or less (almost no effect)); herbicidal effect on H: barnyard grass (criteria 0-5) (barnyard grass [25]): 2 (Herbicidal rate of 20% or more and less than 40%)
CSc1cccc(-c2sc3ccc(F)cc3c2-c2c(O)c(C)nn(C)c2=O)c1 [2-240]	4 (Herbicidal rate of 70% or more and less than 90%)	3 (Herbicidal rate of 40% or more and less than 70%)	2 (Herbicidal rate of 20% or more and less than 40%)	5 (Herbicidal rate of 90% or more (almost completely withered))	1 (Herbicidal rate of 5% or more and less than 20%)	3 (Herbicidal rate of 40% or more and less than 70%)	0 (Herbicidal rate of 5% or less (almost no effect))	5 (Herbicidal rate of 90% or more (almost completely withered))	0 (Herbicidal rate of 5% or less (almost no effect))	4 (Herbicidal rate of 70% or more and less than 90%)	5 (Herbicidal rate of 90% or more (almost completely withered))	0 (Herbicidal rate of 5% or less (almost no effect))	4 (Herbicidal rate of 70% or more and less than 90%)	4 (Herbicidal rate of 70% or more and less than 90%)	5 (Herbicidal rate of 90% or more (almost completely withered))	5 (Herbicidal rate of 90% or more (almost completely withered))	5 (Herbicidal rate of 90% or more (almost completely withered))	5 (Herbicidal rate of 90% or more (almost completely withered))	4 (Herbicidal rate of 70% or more and less than 90%)	1 (Herbicidal rate of 5% or more and less than 20%)	herbicidal effect on D: Chinese sprangletop (Chinese sprangletop): 3 (Herbicidal rate of 40% or more and less than 70%); herbicidal effect on P: chickweed (chickweed [20]): 1 (Herbicidal rate of 5% or more and less than 20%); herbicidal effect on O: lambsquarters (criteria 0-5) (lambsquarters [21]): 5 (Herbicidal rate of 90% or more (almost completely withered)); herbicidal effect on K: Italian ryegrass (criteria 0-5) (Italian ryegrass [22]): 3 (Herbicidal rate of 40% or more and less than 70%); herbicidal effect on L: windgrass (criteria 0-5) (windgrass [23]): 4 (Herbicidal rate of 70% or more and less than 90%); herbicidal effect on G: green foxtail (green foxtail [24]): 5 (Herbicidal rate of 90% or more (almost completely withered)); herbicidal effect on H: barnyard grass (criteria 0-5) (barnyard grass [25]): 3 (Herbicidal rate of 40% or more and less than 70%)
